Experimental findings from ChEMBL document CHEMBL4261544, “Structure-metabolism-relationships in the microsomal clearance of piperazin-1-ylpyridazines” (Medchemcomm, 2017) are described below.

Series [1] can be described thus: Half life in human liver microsomes at 10 uM in presence of NADPH by LC-MS/MS analysis. Format: ADME, microsome. Conditions: for half-life at 10 µM: liver microsomes. (In general: Liver microsomes are vesicles of endoplasmic reticulum, rich in cytochrome P450 enzymes.)
Series [2] in a line: Half life in mouse liver microsomes at 10 uM in presence of NADPH by LC-MS/MS analysis. In kind it is ADME, microsome. The note with it: for half-life at 10 µM: liver microsomes.
Series [3] in a line: Extraction ratio in mouse liver microsomes at 10 uM in presence of NADPH by LC-MS/MS analysis. Format: ADME, microsome. Conditions: read-out: ERH.
The nature of series [4]: Extraction ratio in human liver microsomes at 10 uM in presence of NADPH by LC-MS/MS analysis. In kind it is ADME, microsome. The note with it: read-out: ERH.
Series [5] in a line: Drug metabolism in mouse liver microsomes assessed as oxidation at benzene ring D at 10 uM in presence of NADPH after 30 to 60 mins by LC-MS/MS analysis. In kind it is ADME, microsome.
The nature of series [6]: Drug metabolism in mouse liver microsomes assessed as oxidation at benzene ring A at 10 uM in presence of NADPH after 30 to 60 mins by LC-MS/MS analysis. In kind it is ADME, microsome.
Series [7] in a line: Drug metabolism in mouse liver microsomes assessed as oxidation at benzene ring C at 10 uM in presence of NADPH after 30 to 60 mins by LC-MS/MS analysis. In kind it is ADME, microsome.
Series [8] can be described thus: Drug metabolism in mouse liver microsomes assessed as oxidation at benzene ring B at 10 uM in presence of NADPH after 30 to 60 mins by LC-MS/MS analysis. In kind it is ADME, microsome.
The nature of series [9]: Drug metabolism in human liver microsomes assessed as 6-(4-(o-tolylsulfonyl)piperazin-1-yl)pyridazine-3-carboxamide formation at 10 uM in presence of NADPH after 60 mins by LC-MS/MS analysis. In kind it is ADME, microsome. Conditions: 1 h.
Series [10] can be described thus: Metabolic stability in human liver microsomes assessed as parent compound remaining at 10 uM in presence of NADPH after 60 mins by LC-MS/MS analysis. Format: ADME, microsome. The note with it: 1 h.
Series [11] can be described thus: Metabolic stability in mouse liver microsomes assessed as parent compound remaining at 10 uM in presence of NADPH after 60 mins by LC-MS/MS analysis. Format: ADME, microsome. Conditions: 1 h.
Series [12] is described as follows: Drug level in mouse liver microsomes treated with N-benzyl-6-(4-(o-tolylsulfonyl)piperazin-1-yl)pyridazine-3-carboxamide at 10 uM in presence of NADPH after 60 mins by LC-MS/MS analysis. Format: ADME, microsome. Conditions: 1 h.
Series [13] in a line: Drug level in human liver microsomes treated with N-benzyl-6-(4-(o-tolylsulfonyl)piperazin-1-yl)pyridazine-3-carboxamide at 10 uM in presence of NADPH after 60 mins by LC-MS/MS analysis. Conditions: 1 h. In kind it is ADME, microsome.
The nature of series [14]: Aqueous solubility in pH 7.4 PBS buffer. In kind it is physicochemical.

What is called half-life is how long it takes for the measured level to halve. In the case of `O=C(NCc1ccccc1)c1ccc(N2CCN(S(=O)(=O)c3ccccc3Cl)CC2)nn1`, the half-life at 10 µM in series [1] came to 5 min; in series [2], 2 min. For the same molecule, the figures for the hepatic extraction ratio at 10 µM in [3] and in series [4] were 0.97 and 0.89, respectively.

Turning to `Cc1ccccc1S(=O)(=O)N1CCN(c2ccc(C(=O)NCc3cncs3)nn2)CC1`, the results for the half-life at 10 µM in [1] and in [2] were 30 min and 18 min, respectively. Besides, the results for the hepatic extraction ratio at 10 µM in series [3] and in series [4] were 0.77 and 0.59, respectively.

As to `O=C(NCc1ccc(F)cc1)c1ccc(N2CC3(C2)CN(S(=O)(=O)c2cccnc2Cl)C3)nn1`, the half-life at 10 µM in series [1] stood at 0.35 min; in series [2], 113 min. In addition, the hepatic extraction ratio at 10 µM in series [4] turned out to be 0.29.

Consider `O=C(NCc1ccc(F)cc1)c1ccc(N2CCN(S(=O)(=O)c3cccnc3C3CC3)CC2)nn1`, for which the half-life at 10 µM in series [2] is 6 min.

As to `O=C(NCc1ccc(F)cc1)c1ccc(N2CCN(S(=O)(=O)c3cccnc3Cl)CC2)nn1`, in [2], the half-life at 10 µM worked out at 13 min.

Take `Cc1ccccc1S(=O)(=O)N1CCN(c2cnc(C(=O)NCc3ccc(F)cc3)cn2)CC1`: the half-life at 10 µM was found to be 2 min in [1] and 3 min in series [2]. Also, the hepatic extraction ratio at 10 µM in [3] and in series [4] was 0.95 each time.

As for `O=C(NCc1ccccc1)c1ccc(N2CCC(S(=O)(=O)c3cccc(Cl)c3Cl)CC2)nn1`, the half-life at 10 µM in series [1] is 27 min; in series [2], 20 min. Further, the hepatic extraction ratio at 10 µM in series [3] worked out at 0.75; in series [4] it was 0.61.

On to `O=C(NCc1ccc(F)cc1)c1ccc(N2CCN(S(=O)(=O)c3ccc(F)cc3C(F)(F)F)CC2)nn1`, for which the Drug metabolism entry was “Metabolite_Detected” in series [5], “Metabolite_Notdetected” in series [6], “Metabolite_Detected” in [7] and “Metabolite_Detected” in series [8]. For the same molecule, the half-life at 10 µM in series [2] came to 12 min. Further, the hepatic extraction ratio at 10 µM in series [3] was 0.84.

For the molecule `Cc1ccccc1S(=O)(=O)N1CCN(c2ccc(C(=O)NCc3ccccc3)nn2)CC1`, the t1/2 in series [1] (microsomes, 10 µM) is given as 3 min; in series [2] (microsomes, 10 µM), 2 min. Besides, in [9], the Drug metabolism result is listed as “Metabolite_Notdetected”. Also, the hepatic extraction ratio at 10 µM is 0.97 in series [3] and 0.93 in series [4]. Also, the figures for the Stability in series [10] and in series [11] were 62% and 42%, respectively.

For the molecule `O=C(NCc1ccc(F)cc1)c1ccc(N2CCN(S(=O)(=O)c3cccnc3O)CC2)nn1`, in series [2], the half-life at 10 µM is 72 min.

As for `Cc1ncccc1S(=O)(=O)N1CCN(c2ccc(C(=O)NCc3ccc(F)cc3)nn2)CC1`, in series [2], the half-life at 10 µM turned out to be 8 min.

Turning to `Nc1ncccc1S(=O)(=O)N1CCN(c2ccc(C(=O)NCc3ccc(F)cc3)nn2)CC1`, the half-life at 10 µM in series [2] worked out at 19 min.

Take `Cc1ccccc1S(=O)(=O)N1CC=C(c2ccc(C(=O)NCc3ccc(F)cc3)nn2)CC1`: the figures for the half-life at 10 µM in series [1] and in series [2] were 2 min and 5 min, respectively. Besides, the hepatic extraction ratio at 10 µM was found to be 0.94 in series [3] and 0.96 in series [4].

On to `Cc1ccccc1S(=O)(=O)N1CCN(c2ccc(C(N)=O)nn2)CC1`, for which the Drug metabolism result in series [12] and in series [13] was “Metabolite_Detected” throughout.

In the case of `O=C(NCc1ccc(F)cc1)c1ccc(N2CCN(S(=O)(=O)c3ccccc3C(F)(F)F)CC2)nn1`, the Drug metabolism entry in series [5] is on record as “Metabolite_Detected”; in series [6], “Metabolite_Notdetected”; in series [7] it was “Metabolite_Detected”; in [8], “Metabolite_Detected”. In addition, in series [2], the half-life at 10 µM amounted to 31 min. Besides, in series [3], the hepatic extraction ratio at 10 µM was found to be 0.66.

With `N#Cc1ncccc1S(=O)(=O)N1CCN(c2ccc(C(=O)NCc3ccc(F)cc3)[n+]([O-])n2)CC1`, in series [2], the half-life at 10 µM was found to be 16 min.

As to `O=C(NCc1ccc(F)cc1)c1ccc(N2CCN(S(=O)(=O)c3cccnc3N3CCOCC3)CC2)nn1`, the half-life at 10 µM in series [2] worked out at 2 min.

With `Cc1nc(C(F)(F)F)ccc1S(=O)(=O)N1CCN(c2ccc(C(=O)NCc3ccc(F)cc3)nn2)CC1`, in series [2], the half-life at 10 µM turned out to be 23 min.

As for `Cc1ccccc1S(=O)(=O)N1CCN(c2ccc(C(=O)NCc3ccc(F)cc3)nn2)CC1`, the half-life at 10 µM in [1] turned out to be 34 min; in series [2] it was 26 min. Also, the figures for the hepatic extraction ratio at 10 µM in series [3] and in series [4] were 0.7 and 0.56, respectively.

Consider `O=C(NCc1ccccc1)c1ccc(N2CCN(S(=O)(=O)c3cccc(Cl)c3Cl)CC2)nn1`, for which the half-life at 10 µM was 16 min in [1] and 14 min in [2]. Also, the hepatic extraction ratio at 10 µM in series [3] amounted to 0.81; in series [4], 0.73.

With `Cc1ccccc1S(=O)(=O)N1CCN(c2ccc(C(=O)NCc3cccs3)nn2)CC1`, the half-life at 10 µM in series [1] was found to be 4 min; in series [2], 2 min. For the same molecule, the hepatic extraction ratio at 10 µM in [3] was determined as 0.97; in series [4], 0.92.

On to `N#Cc1ncccc1S(=O)(=O)N1CCN(c2ccc(C(=O)NCc3ccc(F)cc3)nn2)CC1`, for which, in [2], the half-life at 10 µM is 5 min.

`Cc1ccc(F)cc1S(=O)(=O)N1CCN(c2ccc(C(=O)NCc3ccc(F)cc3)nn2)CC1`: the half-life at 10 µM stood at 12 min in series [1] and 68 min in series [2]. In addition, the solubility result in series [14] is given as “Insoluble”. For the same molecule, the hepatic extraction ratio at 10 µM in series [3] was 0.47; in series [4], 0.78.

For `Cc1cc(F)ccc1S(=O)(=O)N1CCN(c2ccc(C(=O)NCc3ccc(F)cc3)nn2)CC1`, in series [2], the half-life at 10 µM was determined as 15 min. The hepatic extraction ratio at 10 µM in [3] was 0.8.

In the case of `Cc1ccccc1S(=O)(=O)N1CC2(CN(c3ccc(C(=O)NCc4ccc(F)cc4)nn3)C2)C1`, the half-life at 10 µM came out at 1 min in series [1] and 2 min in [2]. For the same molecule, the hepatic extraction ratio at 10 µM in series [3] was 0.98; in series [4], 0.97.
